We go through one molecule from patent US20090054512A1, “USE OF ORGANIC COMPOUNDS” (priority 2006, published 2009).

Each structure is given as a SMILES string.

The test concerns patients with type 2 diabetes. Put plainly: Randomized, double-blind, two-period crossover clinical study of 100 mg vildagliptin once daily in the morning or the evening. In kind it is in vivo, human.

In the case of `N#C[C@@H]1CCCN1C(=O)CNC12CC3CC(CC(O)(C3)C1)C2` [vildagliptin, (S)-1-[(3-hydroxy-1-adamantyl)amino]acetyl-2-cyano-pyrrolidine], the “overnight HGP (hepatic glucose production) reduction” value (administered before or with the evening meal, especially patients with baseline HbA1c>8.0%) is recorded as “unexpected additional benefit on the overnight HGP reduction”. The “overnight hepatic glucose production” value (at least 100 mg before or with the morning meal, or before or with the lunch, type 2 diabetes, especially baseline HbA1c>8.0%) is reported as “can be reduced”.
